Data on one compound can be found in US6248367A, “Bovine excretion extracts having anticancer and anti-inflammatory activity and process for preparing the same” (Kim; Bok Deuk, priority 1998, dated 2001).

This series can be described thus: in vitro. The settings on record: rat, erythrocytes. As to the method:
Cytotoxicity of the bovine excretion extracts according to the present invention was tested by measuring degree of hemolysis of erythrocytes. To erytlirocytes isolated from rats, the extracts prepared in example 1 were added and then, the mixture was cultivated at a temperature of 37° C. for 30, 60 and 120 minutes, respectively. After centrifugation, 400 μl of medium was taken and then reagent for detection of hemolysis was added thereto. Then, absorbance was read at 540 nm to determine degree of hemolysis. Degree of hemolysis (%) is calculated as follows: [formula]
Erythrocytes treated with menadione (positive control) were measured on degree of hemolysis, for the purpose of comparison with the bovine excretion extracts prepared in example 1. Menadione is a known compound which induce hemolysis of erythrocytes.

For `CC1=CC(=O)c2ccccc2C1=O` [menadione, Menadione], the hemolysis at 0 h stood at 0%, the hemolysis at 0.5 h was found to be 1.6 ± 1.3%, the hemolysis at 1 h was 2.3 ± 0.4% and the hemolysis at 2 h is 65.3 ± 4.8%.
